Experimental data published in patent publication US20040122106A1, “Tablets quickly disintegrating in oral cavity” (priority 2001, published 2004).
Values after ≈ are worked out from the molar mass of the structure shown. Counter-ions that a name gives are not always drawn.

Assay: physchem
Details: 20 °C, water, thermodynamic from solid
Protocol: The water solubility of the pharmacologically active ingredient was determined by the method described in the Japanese Pharmacopoeia, the General Rule 13, Paragraph 23.

For `CN(C)C(=O)C(CCN1CCC(O)(c2ccc(Cl)cc2)CC1)(c1ccccc1)c1ccccc1` [loperamide hydrochloride], the solubility at 30 min was roughly 1 mg/mL.

Same assay, conditions: water, 20 °C, thermodynamic from solid

In order of falling solubility at 30 min:
1. COc1ccc(OC)c(C(O)CNC(=O)CN)c1 (stereo not drawn) [midodrine hydrochloride]  ~100 mg/mL
2. C[C@H](CS)C(=O)N1CCC[C@H]1C(=O)O [captopril]  ~60 mg/mL (≈ 276000 µM)
3. Nc1c(Br)cc(Br)cc1CN[C@H]1CC[C@H](O)CC1 [ambroxol hydrochloride]  ~20 mg/mL
4. NC(N)=Nc1nc(CSCCC(N)=NS(N)(=O)=O)cs1 [famotidine]  ~0.7 mg/mL (≈ 2070 µM)
5. O=c1[nH]c2ccccc2n1CCCN1CCC(n2c(=O)[nH]c3cc(Cl)ccc32)CC1 [domperidone]  ~0.002 mg/mL (≈ 4.7 µM)
